Each compound was assayed against T1, human LPAR1 (Homo sapiens, UniProt Q92633) (assay: LPAR1 intracellular calcium mobilization assay (antagonist mode)). Settings: CHO-K1 EDG2 cells expressing human LPAR1; 60 min pre-incubation with compound, then LPA 18:2 at EC80 (100 nM); FLIPR calcium signal.
T1 construct: host or cells: CHO-K1
T1 sequence (Q92633 whole entry): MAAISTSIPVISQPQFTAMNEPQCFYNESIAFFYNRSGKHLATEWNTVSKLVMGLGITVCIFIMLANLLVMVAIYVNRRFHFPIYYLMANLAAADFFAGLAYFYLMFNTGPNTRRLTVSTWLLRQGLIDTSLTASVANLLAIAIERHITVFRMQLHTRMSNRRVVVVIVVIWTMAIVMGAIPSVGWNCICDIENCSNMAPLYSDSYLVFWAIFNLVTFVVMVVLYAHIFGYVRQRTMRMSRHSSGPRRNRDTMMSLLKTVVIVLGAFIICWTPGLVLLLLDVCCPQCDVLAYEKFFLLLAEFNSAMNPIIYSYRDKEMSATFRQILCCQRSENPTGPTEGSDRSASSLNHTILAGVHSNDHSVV
Format: cell-based
Method: In vitro LPAR1 activity was measured in an intracellular calcium mobilization assay.
CHO-K1 EDG2 cells (DiscoverX cat #93-0644C2) expressing human LPAR1 (NM_001401.3) were seeded in a total volume of 25 μL of Dulbecco's Modification of Eagle's Medium (DMEM) with 10% Fetal Bovine Serum, 1× PenStrepGlutamine, 300 ug/ml Hygromycin, and 800 ug/ml G418 into 384-well tissue culture plate (Grenier #781091) at 15,000 cells/well and incubated at 37° C. overnight. Prior to testing, 25 μL Calcium Loading Dye Component A (FLIPR Calcium 6 Assay Kit Molecular Device #R8190) and 2.5 mM Probenecid (Invitrogen #P36400, prepared fresh) in Hank's Balanced Salt Solution (Corning #21-023-CV), 20 mM HEPES (Corning #25-060-CI), 0.1% Bovine Serum Albumin (Sigma-Aldrich #A7906-500G) was add to the cells for 60 minutes at 37° C.
Agonist dose curves of LPA 18:2 (Avanti Polar Lipids cat #857138, 0.5 nM to 10 μM) were recorded to determine the LPA 18:2 EC80 for subsequent antagonist assays. For agonist dose curves, cells were removed from the incubator 2 hours after dye loading and transferred to the FLIPR Tetra instrument (Molecular Devices, San Jose, CA). Calcium mobilization was monitored for 5 min and 10 μL 6× LPA in HBSS/20 mM Hepes/0.1% bovine serum albumin (BSA) was added to the cells 5 seconds into the assay.
To determine the LPAR1 antagonist activity of test compounds, cells were pre-incubated with test compound at a dose range of 0.5 nM to 10 μM, followed by LPA at EC80 concentration (100 nM). After dye loading, cells were removed from the incubator and 0.3 μL of 200× antagonist was added. Cells were incubated for 60 minutes at 37° C. Antagonist activity was measured on a FLIPR Tetra. Calcium mobilization was monitored for 3.5 minutes and 10 μL 6× EC80 LPA in HBSS, 20 mM HEPES, and 0.1% BSA was added to the cells 5 seconds into the assay. Signal amplitude (Maximum minus minimum) values were plotted against log10 of antagonist concentration using Dose Response Tool (Gilead Sciences Inc.) to determine EC50.
To assess the antagonistic potential of exemplified compounds EC50 values were determined for Compounds 1 to 32 in the LPAR1 calcium mobilization assay. The compound numbers correspond to the compound numbers in Examples 1 to 33.
In the case of `C[C@@H](OC(=O)Nc1c(-c2ccc3c(c2)OCC(=O)N3)nnn1C)c1cccnc1Cl` [Compound 18, (R)-1-(2-chloropyridin-3-yl)ethyl (1-methyl-4-(3-oxo-3,4-dihydro-2H-benzo[b][1,4]-oxazin-7-yl)-1H-1,2,3-triazol-5-yl)-carbamate], the EC50 is reported as 265 nM.
For `Cn1nnc(-c2ccc3c(n2)OCC(=O)N3)c1NC(=O)O[C@H](CF)c1ccccc1` [Compound 5, (S)-2-fluoro-1-phenylethyl (1-methyl-4-(2-oxo-2,3-dihydro-1H-pyrido[2,3-b][1,4]-oxazin-6-yl)-1H-1,2,3-triazol-5-yl)-carbamate], the EC50 was 100 nM.
For `C[C@@H](OC(=O)Nc1c(-c2cc(F)c3c(c2)CCC(=O)N3)nnn1C)c1cccnc1Cl` [Compound 29, (R)-1-(2-chloropyridin-3-yl)ethyl (4-(8-fluoro-2-oxo-1,2,3,4-tetrahydroquinolin-6-yl)-1-methyl-1H-1,2,3-triazol-5-yl)carbamate], the EC50 was 5 nM.
For `C[C@@H](OC(=O)Nc1c(-c2ccc3c(c2)C(C)(C)OC(=O)N3)nnn1C)c1cccnc1F` [Compound 9, (R)-1-(2-fluoropyridin-3-yl)ethyl (4-(4,4-dimethyl-2-oxo-1,4-dihydro-2H-benzo[d][1,3]oxazin-6-yl)-1-methyl-1H-1,2,3-triazol-5-yl)carbamate], the EC50 was 4610 nM.
`CC1Oc2nc(-c3nnn(C)c3NC(=O)O[C@H](C)c3cc(F)cnc3F)ccc2NC1=O` (stereo partly drawn) [Compound 32, (R)-1-(2,5-difluoropyridin-3-yl)ethyl (1-methyl-4-(3-methyl-2-oxo-2,3-dihydro-1H-pyrido[2,3-b][1,4]oxazin-6-yl)-1H-1,2,3-triazol-5-yl)carbamate] was tested, and the EC50 was 3780 nM.

— patent US12139474B2, “LPA receptor antagonists and uses thereof” (Gilead Sciences, Inc., priority 2020, dated 2024)
